According to PubChem BioAssay AID1963427 (Molecular Pharmacology Branch, DTP, NCI, 2024):

Tested on: 317291-083-R-J1-PDC complex spheroid growth
Experiment: Anticancer human tumor 317291-083-R-J1-PDC patient-derived soft tissue sarcoma cell line growth inhibition [Asc]
Details: for IC50: curve of first compound; for viability, T/C: stronger effect = lower value
In short: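 Tumor cells were grown as complex spheroids with human endothelial cells (HUVEC) and human mesenchymal stem cells as stroma. Agents were tested alone and in combination, in half-log steps down from the clinical Cmax, or from 10 microM where Cmax was unknown.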

[1] = second compound 0.0316 µM, first compound 0.0316 µM
[2] = second compound 0.0316 µM, first compound 0.1 µM
[3] = second compound 0.0316 µM, first compound 0.316 µM
[4] = second compound 0.0316 µM, first compound 1 µM
[5] = second compound 0.1 µM, first compound 0.0316 µM
[6] = second compound 0.1 µM, first compound 0.1 µM
[7] = second compound 0.1 µM, first compound 0.316 µM
[8] = second compound 0.1 µM, first compound 1 µM
[9] = second compound 0.316 µM, first compound 0.0316 µM
[10] = second compound 0.316 µM, first compound 0.1 µM
[11] = second compound 0.316 µM, first compound 0.316 µM
[12] = second compound 0.316 µM, first compound 1 µM
[13] = second compound 1 µM, first compound 0.0316 µM
[14] = second compound 1 µM, first compound 0.1 µM
[15] = second compound 1 µM, first compound 0.316 µM
[16] = second compound 1 µM, first compound 1 µM
[17] = second compound 3.16 µM, first compound 0.0316 µM
[18] = second compound 3.16 µM, first compound 0.1 µM
[19] = second compound 3.16 µM, first compound 0.316 µM
[20] = second compound 3.16 µM, first compound 1 µM
[21] = second compound 10 µM, first compound 0.0316 µM
[22] = second compound 10 µM, first compound 0.1 µM
[23] = second compound 10 µM, first compound 0.316 µM
[24] = second compound 10 µM, first compound 1 µM
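Also: compound exposure lasted seven days after spheroids formed for three days.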
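For viability, T/C in this document: 100% = DMSO vehicle control wells.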

## C#Cc1c(F)ccc2cc(O)cc(-c3ncc4c(N5CC6CCC(C5)N6)nc(OCC56CCCN5CC(F)C6)nc4c3F)c12 (stereo unspecified) + Cc1c(S(C)(=O)=O)c(-c2cc(F)cc(N3CCN(c4ccc(NS(=O)(=O)c5ccc(NC(CCN6CCC(C(=O)OCCCP(=O)(O)O)CC6)CSc6ccccc6)c(S(=O)(=O)C(F)(F)F)c5)cc4)CC3)c2)c(-c2ccc(Cl)cc2)n1C(C)C
Second compound 0.0316 µM
  IC50: > 10000 nM
Second compound 0.1 µM
  IC50: > 10000 nM
Second compound 0.316 µM
  IC50: > 10000 nM
Second compound 1 µM
  IC50: > 10000 nM
Second compound 3.16 µM
  IC50: > 10000 nM
Second compound 10 µM
  IC50: 9940 nM
[1]
  viability, T/C: 105%
[2]
  viability, T/C: 89%
[3]
  viability, T/C: 102%
[4]
  viability, T/C: 84.6%
Second compound 0.0316 µM, first compound 3.16 µM
  viability, T/C: 96.7%
Second compound 0.0316 µM, first compound 10 µM
  viability, T/C: 68.8%
[5]
  viability, T/C: 86.5%
[6]
  viability, T/C: 101%
[7]
  viability, T/C: 92.1%
[8]
  viability, T/C: 87.7%
Second compound 0.1 µM, first compound 3.16 µM
  viability, T/C: 96.7%
Second compound 0.1 µM, first compound 10 µM
  viability, T/C: 70.1%
[9]
  viability, T/C: 93.9%
[10]
  viability, T/C: 87.3%
[11]
  viability, T/C: 80.3%
[12]
  viability, T/C: 78.9%
Second compound 0.316 µM, first compound 3.16 µM
  viability, T/C: 80.3%
Second compound 0.316 µM, first compound 10 µM
  viability, T/C: 62.5%
[13]
  viability, T/C: 90.7%
[14]
  viability, T/C: 70.3%
[15]
  viability, T/C: 83.4%
[16]
  viability, T/C: 67.6%
Second compound 1 µM, first compound 3.16 µM
  viability, T/C: 74.9%
Second compound 1 µM, first compound 10 µM
  viability, T/C: 58.4%
[17]
  viability, T/C: 75.5%
[18]
  viability, T/C: 67.1%
[19]
  viability, T/C: 68.9%
[20]
  viability, T/C: 71.7%
Second compound 3.16 µM, first compound 3.16 µM
  viability, T/C: 74.3%
Second compound 3.16 µM, first compound 10 µM
  viability, T/C: 53.2%
[21]
  viability, T/C: 79.9%
[22]
  viability, T/C: 101%
[23]
  viability, T/C: 89.2%
[24]
  viability, T/C: 76.9%
Second compound 10 µM, first compound 3.16 µM
  viability, T/C: 80.5%
Second compound 10 µM, first compound 10 µM
  viability, T/C: 49.1%

## CNC(C)C(=O)NC1CN(S(=O)(=O)c2cccc(S(=O)(=O)N3CCC4CCC(C(=O)NC(c5ccccc5)c5ccccc5)N4C(=O)C(NC(=O)C(C)NC)C3)c2)CCC2CCC(C(=O)NC(c3ccccc3)c3ccccc3)N2C1=O (stereo unspecified) + Cc1c(S(C)(=O)=O)c(-c2cc(F)cc(N3CCN(c4ccc(NS(=O)(=O)c5ccc(NC(CCN6CCC(C(=O)OCCCP(=O)(O)O)CC6)CSc6ccccc6)c(S(=O)(=O)C(F)(F)F)c5)cc4)CC3)c2)c(-c2ccc(Cl)cc2)n1C(C)C
Second compound 0.0316 µM
  IC50: 197 nM
Second compound 0.1 µM
  IC50: 138 nM
Second compound 0.316 µM
  IC50: 176 nM
Second compound 1 µM
  IC50: 61.4 nM
Second compound 3.16 µM
  IC50: 84.1 nM
Second compound 10 µM
  IC50: 149 nM
Second compound 0.0316 µM, first compound 0.00316 µM
  viability, T/C: 121%
Second compound 0.0316 µM, first compound 0.01 µM
  viability, T/C: 65.5%
[1]
  viability, T/C: 82.7%
[2]
  viability, T/C: 55.4%
[3]
  viability, T/C: 53.3%
[4]
  viability, T/C: 32.9%
Second compound 0.1 µM, first compound 0.00316 µM
  viability, T/C: 88.3%
Second compound 0.1 µM, first compound 0.01 µM
  viability, T/C: 80.2%
[5]
  viability, T/C: 60.4%
[6]
  viability, T/C: 62.2%
[7]
  viability, T/C: 35.1%
[8]
  viability, T/C: 25.1%
Second compound 0.316 µM, first compound 0.00316 µM
  viability, T/C: 82.7%
Second compound 0.316 µM, first compound 0.01 µM
  viability, T/C: 67.4%
[9]
  viability, T/C: 74.5%
[10]
  viability, T/C: 60.5%
[11]
  viability, T/C: 38.8%
[12]
  viability, T/C: 23.8%
Second compound 1 µM, first compound 0.00316 µM
  viability, T/C: 70.7%
Second compound 1 µM, first compound 0.01 µM
  viability, T/C: 61.4%
[13]
  viability, T/C: 55%
[14]
  viability, T/C: 44.5%
[15]
  viability, T/C: 41.3%
[16]
  viability, T/C: 25.3%
Second compound 3.16 µM, first compound 0.00316 µM
  viability, T/C: 81%
Second compound 3.16 µM, first compound 0.01 µM
  viability, T/C: 53.1%
[17]
  viability, T/C: 65.1%
[18]
  viability, T/C: 50.9%
[19]
  viability, T/C: 36.6%
[20]
  viability, T/C: 22.1%
Second compound 10 µM, first compound 0.00316 µM
  viability, T/C: 77.5%
Second compound 10 µM, first compound 0.01 µM
  viability, T/C: 78.6%
[21]
  viability, T/C: 67.1%
[22]
  viability, T/C: 60%
[23]
  viability, T/C: 34.9%
[24]
  viability, T/C: 24.8%

## Cc1nc(N2CCC3(CC2)COC(C)C3N)c(CO)nc1Sc1ccnc(N)c1Cl (stereo unspecified) + Cc1c(S(C)(=O)=O)c(-c2cc(F)cc(N3CCN(c4ccc(NS(=O)(=O)c5ccc(NC(CCN6CCC(C(=O)OCCCP(=O)(O)O)CC6)CSc6ccccc6)c(S(=O)(=O)C(F)(F)F)c5)cc4)CC3)c2)c(-c2ccc(Cl)cc2)n1C(C)C
Second compound 0.0316 µM
  IC50: 1960 nM
Second compound 0.1 µM
  IC50: 2540 nM
Second compound 0.316 µM
  IC50: 946 nM
Second compound 1 µM
  IC50: 600 nM
Second compound 3.16 µM
  IC50: 469 nM
Second compound 10 µM
  IC50: 992 nM
Second compound 0.0316 µM, first compound 0.00949 µM
  viability, T/C: 96.4%
Second compound 0.0316 µM, first compound 0.03 µM
  viability, T/C: 77.5%
Second compound 0.0316 µM, first compound 0.0949 µM
  viability, T/C: 98.4%
Second compound 0.0316 µM, first compound 0.3 µM
  viability, T/C: 82.8%
Second compound 0.0316 µM, first compound 0.949 µM
  viability, T/C: 61.3%
Second compound 0.0316 µM, first compound 3 µM
  viability, T/C: 43.5%
Second compound 0.1 µM, first compound 0.00949 µM
  viability, T/C: 98.1%
Second compound 0.1 µM, first compound 0.03 µM
  viability, T/C: 92.1%
Second compound 0.1 µM, first compound 0.0949 µM
  viability, T/C: 81.9%
Second compound 0.1 µM, first compound 0.3 µM
  viability, T/C: 69.8%
Second compound 0.1 µM, first compound 0.949 µM
  viability, T/C: 51.3%
Second compound 0.1 µM, first compound 3 µM
  viability, T/C: 51%
Second compound 0.316 µM, first compound 0.00949 µM
  viability, T/C: 88.3%
Second compound 0.316 µM, first compound 0.03 µM
  viability, T/C: 91.3%
Second compound 0.316 µM, first compound 0.0949 µM
  viability, T/C: 74.4%
Second compound 0.316 µM, first compound 0.3 µM
  viability, T/C: 63.9%
Second compound 0.316 µM, first compound 0.949 µM
  viability, T/C: 52.2%
Second compound 0.316 µM, first compound 3 µM
  viability, T/C: 29.9%
Second compound 1 µM, first compound 0.00949 µM
  viability, T/C: 93.7%
Second compound 1 µM, first compound 0.03 µM
  viability, T/C: 73.2%
Second compound 1 µM, first compound 0.0949 µM
  viability, T/C: 68.8%
Second compound 1 µM, first compound 0.3 µM
  viability, T/C: 63.1%
Second compound 1 µM, first compound 0.949 µM
  viability, T/C: 39.2%
Second compound 1 µM, first compound 3 µM
  viability, T/C: 37.9%
Second compound 3.16 µM, first compound 0.00949 µM
  viability, T/C: 86.5%
Second compound 3.16 µM, first compound 0.03 µM
  viability, T/C: 69.8%
Second compound 3.16 µM, first compound 0.0949 µM
  viability, T/C: 66.2%
Second compound 3.16 µM, first compound 0.3 µM
  viability, T/C: 58.6%
Second compound 3.16 µM, first compound 0.949 µM
  viability, T/C: 42.2%
Second compound 3.16 µM, first compound 3 µM
  viability, T/C: 20.4%
Second compound 10 µM, first compound 0.00949 µM
  viability, T/C: 86.5%
Second compound 10 µM, first compound 0.03 µM
  viability, T/C: 87.3%
Second compound 10 µM, first compound 0.0949 µM
  viability, T/C: 81.7%
Second compound 10 µM, first compound 0.3 µM
  viability, T/C: 67.5%
Second compound 10 µM, first compound 0.949 µM
  viability, T/C: 52%
Second compound 10 µM, first compound 3 µM
  viability, T/C: 26.7%
